{"source": "patent US8741940B2", "about": "“Microbicidal composition” (Rohm and Haas Company, priority 2005, dated 2014)", "format_in_all_cases": "cell-based", "conditions_in_all_cases": "for Qa (concentration of MBIT producing the end point, MIC): alone where Qb = 0, otherwise in the mixture", "key": {"[1]": {"test_system": "Escherichia coli (E. coli—ATCC #8739)", "assay": "Synergy test, microtiter plate high resolution MIC assay, bacterium in M9GY medium", "design": "Qa (First Component A) / Qb (Second Component B): unit: ppm", "in_short": "(§1)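 High-resolution microtiter MICs of BBIT or MBIT (component A) combined with a second microbicide (B), dilutions spanning 2–10,000 ppm active. E. coli ~5×10^6/mL in M9GY at 30 °C; C. albicans and A. niger 5×10^5/mL in PDB. Synergy index = Qa/QA + Qb/QB; >1 antagonism.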"}, "[2]": {"test_system": "Aspergillus niger (A. niger—ATCC 16404)", "assay": "Synergy test, microtiter plate high resolution MIC assay, mold in PDB medium", "design": "Qb (Second Component B) / Qa (First Component A): unit: ppm", "in_short": "as §1"}, "[3]": {"test_system": "Candida albicans (C. albicans—ATCC 10231)", "assay": "Synergy test, microtiter plate high resolution MIC assay, yeast in PDB medium", "design": "Qb (Second Component B) / Qa (First Component A): unit: ppm", "in_short": "as §1"}, "[4]": {"conditions": "A=MBIT, B=2-bromo-2-nitro-propane-1,3-diol (BNPD), E. coli 8739 - M9GY, 24 hours"}, "[5]": {"conditions": "A=MBIT, B=BBIT, E. coli 8739 - M9GY, 24 hours"}, "[6]": {"conditions": "A=MBIT, B=Benzalkonium chloride (Hyamine 3500), E. coli 8739 - M9GY, 24 hours"}, "[7]": {"conditions": "A=MBIT, B=Benzisothiazolinone (BIT), E. coli 8739 - M9GY, 24 hours"}, "[8]": {"conditions": "A=MBIT, B=Benzyl alcohol, E. coli 8739 - M9GY, 24 hours"}, "[9]": {"conditions": "A=MBIT, B=Caprylyl glycol, E. coli 8739 - M9GY, 24 hours"}, "[10]": {"conditions": "A=MBIT, B=Chlorphenesin, E. coli 8739 - M9GY, 24 hours"}, "[11]": {"conditions": "A=MBIT, B=DMDM Hydantoin (DMDMH), E. coli 8739 - M9GY, 24 hours"}, "[12]": {"conditions": "A=MBIT, B=dithio-2,2′-bis(N-methylbenzamide) (DTBMA), E. coli 8739 - M9GY, 24 hours"}, "[13]": {"conditions": "A=MBIT, B=2-bromo-2-nitro-propane-1,3-diol (BNPD), A. niger 16404 - PDB, 4 days"}, "[14]": {"conditions": "A=MBIT, B=BBIT, A. niger 16404 - PDB, 4 days"}, "[15]": {"conditions": "A=MBIT, B=Benzalkonium chloride (Hyamine 3500), A. niger 16404 - PDB, 4 days"}, "[16]": {"conditions": "A=MBIT, B=Benzisothiazolinone (BIT), A. niger 16404 - PDB, 7 days"}, "[17]": {"conditions": "A=MBIT, B=Benzyl alcohol, A. niger 16404 - PDB, 4 days"}, "[18]": {"conditions": "A=MBIT, B=Caprylyl glycol, A. niger 16404 - PDB, 4 days"}, "[19]": {"conditions": "A=MBIT, B=Chlorphenesin, A. niger 16404 - PDB, 3 days"}, "[20]": {"conditions": "A=MBIT, B=DMDM Hydantoin (DMDMH), A. niger 16404 - PDB, 3 days"}, "[21]": {"conditions": "A=MBIT, B=dithio-2,2′-bis(N-methylbenzamide) (DTBMA), A. niger 16404 - PDB, 3 days"}, "[22]": {"conditions": "A=MBIT, B=2-bromo-2-nitro-propane-1,3-diol (BNPD), C. albicans 10231 - PDB, 24 hours"}, "[23]": {"conditions": "A=MBIT, B=BBIT, C. albicans 10231 - PDB, 48 hours"}, "[24]": {"conditions": "A=MBIT, B=Benzalkonium chloride (Hyamine 3500), C. albicans 10231 - PDB, 24 hours"}, "[25]": {"conditions": "A=MBIT, B=Benzisothiazolinone (BIT), C. albicans 10231 - PDB, 48 hours"}, "[26]": {"conditions": "A=MBIT, B=Benzyl alcohol, C. albicans 10231 - PDB, 48 hours"}, "[27]": {"conditions": "A=MBIT, B=Caprylyl glycol, C. albicans 10231 - PDB, 24 hours"}, "[28]": {"conditions": "A=MBIT, B=Chlorphenesin, C. albicans 10231 - PDB, 72 hours"}, "[29]": {"conditions": "A=MBIT, B=DMDM Hydantoin (DMDMH), C. albicans 10231 - PDB, 24 hours"}, "[30]": {"conditions": "A=MBIT, B=dithio-2,2′-bis(N-methylbenzamide) (DTBMA), C. albicans 10231 - PDB, 24 hours"}, "[31]": {"conditions": "C. albicans 10231, PDB, 24 hours"}, "[32]": {"conditions": "C. albicans 10231, PDB, 48 hours"}, "[33]": {"conditions": "C. albicans 10231, PDB, 72 hours"}}, "note": "Several values for one entry are separate records, joined by “and”; a condition that tells them apart may be missing. Equal entries are not always repeated. Where two headings read alike, the source gives them in different places."}
{"smiles": "Cn1sc2ccccc2c1=O", "note": "[MBIT, N-methyl-1,2-benzisothiazolin-3-one]", "values": [{"measurement": "Qa (First Component A)", "setting": "[1]", "result": "10 and 7.5"}, {"measurement": "Qa (concentration of First Component A = MBIT at the end point)", "setting": "[1]", "result": 10}, {"measurement": "SI (synergy index)", "setting": "[1]", "result": 1.00}, {"measurement": "Qa (First Component A)", "setting": "[1]; [4]", "result": 10}, {"measurement": "SI (synergy index)", "setting": "[1]; [4]", "result": 1.00}, {"measurement": "Qa (First Component A)", "setting": "[1]; [5]", "result": 10}, {"measurement": "SI (synergy index)", "setting": "[1]; [5]", "result": 1.00}, {"measurement": "Qa (First Component A)", "setting": "[1]; [6]", "result": 100}, {"measurement": "SI (synergy index)", "setting": "[1]; [6]", "result": 1.00}, {"measurement": "Qa (First Component A)", "setting": "[1]; [7]", "result": 10}, {"measurement": "SI (synergy index)", "setting": "[1]; [7]", "result": 1.00}, {"measurement": "Qa (First Component A)", "setting": "[1]; [8]", "result": 10}, {"measurement": "SI (synergy index)", "setting": "[1]; [8]", "result": 1.00}, {"measurement": "Qa (First Component A)", "setting": "[1]; [9]", "result": 10}, {"measurement": "SI (synergy index)", "setting": "[1]; [9]", "result": 1.00}, {"measurement": "Qa (First Component A)", "setting": "[1]; [10]", "result": 15}, {"measurement": "SI (synergy index)", "setting": "[1]; [10]", "result": 1.00}, {"measurement": "Qa (First Component A)", "setting": "[1]; [11]", "result": 10}, {"measurement": "SI (synergy index)", "setting": "[1]; [11]", "result": 1.00}, {"measurement": "Qa (First Component A)", "setting": "[1]; [12]", "result": 15}, {"measurement": "SI (synergy index)", "setting": "[1]; [12]", "result": 1.00}, {"measurement": "SI (synergy index)", "setting": "[1]; E. coli 8739, M9GY, 24 hours", "result": 1.00}, {"measurement": "Qa (concentration of MBIT producing the end point, MIC)", "setting": "[1]; E. coli 8739, M9GY, 24 hours", "result": "10 ppm and 15 ppm"}, {"measurement": "SI (synergy index)", "setting": "[1]; E. coli 8739, M9GY, 48 hours", "result": 1.00}, {"measurement": "Qa (concentration of MBIT producing the end point, MIC)", "setting": "[1]; E. coli 8739, M9GY, 48 hours", "result": "20 ppm and 15 ppm"}, {"measurement": "SI (synergy index)", "setting": "[1]; E. coli 8739, M9GY, 72 hours", "result": 1.00}, {"measurement": "Qa (concentration of MBIT producing the end point, MIC)", "setting": "[1]; E. coli 8739, M9GY, 72 hours", "result": 15, "unit": "ppm"}, {"measurement": "Qa (First Component A)", "setting": "[2]", "result": "30 and 40"}, {"measurement": "Qa (concentration of First Component A = MBIT at the end point)", "setting": "[2]", "result": 40}, {"measurement": "SI (synergy index)", "setting": "[2]", "result": 1.00}, {"measurement": "SI (synergy index)", "setting": "[2]; A. niger 16404, PDB, 3 days", "result": 1.00}, {"measurement": "Qa (concentration of MBIT producing the end point, MIC)", "setting": "[2]; A. niger 16404, PDB, 3 days", "result": "40 ppm and 20 ppm and 30 ppm"}, {"measurement": "SI (synergy index)", "setting": "[2]; A. niger 16404, PDB, 4 days", "result": 1.00}, {"measurement": "Qa (concentration of MBIT producing the end point, MIC)", "setting": "[2]; A. niger 16404, PDB, 4 days", "result": "30 ppm and 40 ppm"}, {"measurement": "SI (synergy index)", "setting": "[2]; A. niger 16404, PDB, 7 days", "result": 1.00}, {"measurement": "Qa (concentration of MBIT producing the end point, MIC)", "setting": "[2]; A. niger 16404, PDB, 7 days", "result": "50 ppm and 60 ppm"}, {"measurement": "Qa (First Component A)", "setting": "[2]; [13]", "result": 30}, {"measurement": "SI (synergy index)", "setting": "[2]; [13]", "result": 1.00}, {"measurement": "Qa (First Component A)", "setting": "[2]; [14]", "result": 40}, {"measurement": "SI (synergy index)", "setting": "[2]; [14]", "result": 1.00}, {"measurement": "Qa (First Component A)", "setting": "[2]; [15]", "result": 30}, {"measurement": "SI (synergy index)", "setting": "[2]; [15]", "result": 1.00}, {"measurement": "Qa (First Component A)", "setting": "[2]; [16]", "result": 50}, {"measurement": "SI (synergy index)", "setting": "[2]; [16]", "result": 1.00}, {"measurement": "Qa (First Component A)", "setting": "[2]; [17]", "result": 50}, {"measurement": "SI (synergy index)", "setting": "[2]; [17]", "result": 1.00}, {"measurement": "Qa (First Component A)", "setting": "[2]; [18]", "result": 20}, {"measurement": "SI (synergy index)", "setting": "[2]; [18]", "result": 1.00}, {"measurement": "Qa (First Component A)", "setting": "[2]; [19]", "result": 20}, {"measurement": "SI (synergy index)", "setting": "[2]; [19]", "result": 1.00}, {"measurement": "Qa (First Component A)", "setting": "[2]; [20]", "result": 40}, {"measurement": "SI (synergy index)", "setting": "[2]; [20]", "result": 1.00}, {"measurement": "Qa (First Component A)", "setting": "[2]; [21]", "result": 30}, {"measurement": "SI (synergy index)", "setting": "[2]; [21]", "result": 1.00}, {"measurement": "Qa (First Component A)", "setting": "[3]", "result": "8 and 10"}, {"measurement": "Qa (concentration of First Component A = MBIT at the end point)", "setting": "[3]", "result": 7.5}, {"measurement": "SI (synergy index)", "setting": "[3]", "result": 1.00}, {"measurement": "Qa (First Component A)", "setting": "[3]; [22]", "result": 8}, {"measurement": "SI (synergy index)", "setting": "[3]; [22]", "result": 1.00}, {"measurement": "Qa (First Component A)", "setting": "[3]; [23]", "result": 10}, {"measurement": "SI (synergy index)", "setting": "[3]; [23]", "result": 1.00}, {"measurement": "Qa (First Component A)", "setting": "[3]; [24]", "result": 8}, {"measurement": "SI (synergy index)", "setting": "[3]; [24]", "result": 1.00}, {"measurement": "Qa (First Component A)", "setting": "[3]; [25]", "result": 10}, {"measurement": "SI (synergy index)", "setting": "[3]; [25]", "result": 1.00}, {"measurement": "Qa (First Component A)", "setting": "[3]; [26]", "result": 10}, {"measurement": "SI (synergy index)", "setting": "[3]; [26]", "result": 1.00}, {"measurement": "Qa (First Component A)", "setting": "[3]; [27]", "result": 10}, {"measurement": "SI (synergy index)", "setting": "[3]; [27]", "result": 1.00}, {"measurement": "Qa (First Component A)", "setting": "[3]; [28]", "result": 10}, {"measurement": "SI (synergy index)", "setting": "[3]; [28]", "result": 1.00}, {"measurement": "Qa (First Component A)", "setting": "[3]; [29]", "result": 7.5}, {"measurement": "SI (synergy index)", "setting": "[3]; [29]", "result": 1.00}, {"measurement": "Qa (First Component A)", "setting": "[3]; [30]", "result": 10}, {"measurement": "SI (synergy index)", "setting": "[3]; [30]", "result": 1.00}, {"measurement": "SI (synergy index)", "setting": "[3]; [31]", "result": 1.00}, {"measurement": "Qa (concentration of MBIT producing the end point, MIC)", "setting": "[3]; [31]", "result": "7.5 ppm and 10 ppm and 15 ppm and 8 ppm"}, {"measurement": "SI (synergy index)", "setting": "[3]; [32]", "result": 1.00}, {"measurement": "Qa (concentration of MBIT producing the end point, MIC)", "setting": "[3]; [32]", "result": "7.5 ppm and 10 ppm"}, {"measurement": "SI (synergy index)", "setting": "[3]; [33]", "result": 1.00}, {"measurement": "Qa (concentration of MBIT producing the end point, MIC)", "setting": "[3]; [33]", "result": 15, "unit": "ppm"}]}
